Values belong to the compound of their own block, whether it stands above or below them.
Columns and labels:
[1] = tested on: tissue calcification in uraemic animals; assay: Adenine model, non-bolus intravascular infusion of IP6; type: in vivo, Wistar rats
Procedure: Objective: to determine the efficacy of IP6 as a non-bolus type administration in the prevention of tissue calcification in uraemic animals.
Experimental: CKD was induced in 2 groups (n=12) of male Wistar rats by oral (p.o.) treatment with adenine (600 mg/kg/day) daily for 10 days. After treatment with adenine, the rats received alpha-calcidol at a dose of 300 ng/kg (3×/week, p.o.) until day 28. From day 0 until sacrifice (day 28), the animals were treated with an intravascular infusion of 50 mg/kg IP6 or saline for 4 hours. After 28 days the aorta and heart were collected and the tissue calcium content determined.

[2] = tested on: tissue calcification in chronic renal impairment model (5/6 nephrectomised rats); assay: 5/6 nephrectomy model, IP6 i.v. bolus; type: in vivo, SD rats; conditions: i.v. bolus 1 or 5 mg/kg, 8 weeks
Procedure: Objective: to determine the efficacy of intravenous IP6 in the prevention of tissue calcification in a chronic renal impairment model (5/6 nephrectomised rats).
Experimental: 48 SD rats were 5/6 nephrectomised by complete right lateral nephrectomy and ⅔ partial nephrectomy of the left kidney. 16 animals per group were treated intravenously (bolus) with 2 ml/kg saline, 1 mg/kg IP6 or 5 mg/kg IP6. The animals received a phosphate-rich diet (1% Ca, 1.2% P) containing 20% lactose. After 8 weeks the aorta, heart and remaining ⅓ kidney were collected and the tissue calcium content determined.

[3] = HAP crystallisation induction period (synergy with other treatments); type: physicochemical
Procedure: Objective: to evaluate the potential synergies between the effects of IP6 and the effects of other treatments for renal impairment.
Experimental: hydroxyapatite (HAP) was crystallised by mixing appropriate concentrations of calcium and phosphate at pH 7.4. The effect of cinacalcet and sevelamer was simulated by suitably modifying the calcium and phosphate concentrations. The induction period (time required for HAP to begin to crystallise) was recorded as the analytical signal.

[4] = PK profile of IP6 by 4 h intravenous infusion in normal and uraemic rats; type: in vivo, Wistar rats
Procedure: Objective: to evaluate the PK profile for IP6 in rats with normal kidney function and non-dialysed rats with renal impairment by intravenous infusion.
Experimental: Wistar rats with normal kidney function were treated daily with a dose of 10 or 50 mg/kg IP6 by intravenous fusion over 4 h. Plasma samples were obtained at different timepoints up to 4 hours on day 0. The animals were then treated orally with 600 mg/kg (p.o.) adenine for 10 days to induce renal impairment. The animals were treated with alpha-calcidol (300 ng/kg) on days 11 and 13 and plasma samples were collected at different timepoints up to 4 hours on day 14. The plasma IP6 levels were quantified for both groups.

[5] = Administration of IP6 via the dialysis system (closed circuit, human blood); type: in vitro ADME
Procedure: Objective: to establish the dialysability of IP6 in human blood using a real dialysis system and the effect thereof on calcium chelation.
Experimental: 1 liter of human blood obtained from patients undergoing therapeutic phlebotomy was introduced into a recipient forming a closed dialysis circuit to simulate a real dialysis. Two experiments were performed (administration pre- and post-dialyser, both in bypass and dialysis mode), administering IP6 to human blood for 20 minutes when outside the recipient (which simulated the animal or human body) and circulating via the dialysis circuit. The recipient containing 1 liter of whole blood at a controlled temperature of 37° C. is connected to the dialysis apparatus to form a closed circuit. The dialysis apparatus will be connected for 1 hour (dialysis fluid flow of 500 ml/min and blood flow of 350 ml/min). Blood samples are collected at different times to determine the IP6 and ionic calcium levels.

[6] = PK profile of IP6 s.c. in rats with normal and diminished kidney function; type: in vivo, Wistar rats
Procedure: Objective: to evaluate the PK profile for rats with normal kidney function and renal impairment. Experimental: a single s.c. dose (10 mg/kg) was administered to rats with normal kidney function. Plasma samples were obtained at different timepoints up to 60 minutes. A different group of Wistar rats received oral treatment with adenine 600 mg/kg (p.o.) for 10 days to induce renal impairment. Alpha-calcidol (300 ng/kg) was administered on days 11 and 13 and plasma samples were collected at different timepoints up to 60 minutes on day 14. The plasma IP6 concentrations were quantified for both groups.

[7] = In vitro binding kinetics of IP6 to HAP; conditions: 130 mg HAP
Procedure: Objective: to analyse the binding rate of IP6 to HAP.
Experimental: 130 mg HAP was incubated (in triplicate) with 7.6 μM IP6, at 37° C., pH 7.4, for different time intervals while stirring continuously.

[8] = In vitro affinity (adsorption) of IP6 for hydroxyapatite; type: binding
Procedure: Objective; the objective of this study is to analyse the affinity of IP6 for the target thereof, thereby obtaining a curve for the affinity of IP6 for HAP.
[…] The total quantity of IP6 bound to the surface of the target (HAP) was quantified.
To characterise the behaviour of IP6 binding, the EC50 and Emax for the adsorption thereof on HAP were calculated. This was performed using a non-linear regression model (Log [agonist] vs. response−slope variable; GraphPad Prism software).

[9] = tested on: tissue calcification in chronic renal impairment model (adenine); assay: Adenine model, bolus-type s.c. IP6; type: in vivo, Wistar rats; conditions: s.c. bolus 3, 10 and 30 mg/kg, 28 days, adenine rats
Procedure: Objective: to determine the efficacy of IP6 in the prevention of tissue calcification in an animal model of chronic renal impairment (adenine).
Experimental: CKD was induced in 4 groups (n=12) of male Wistar rats by oral (p.o.) treatment with adenine (600 mg/kg/day) daily for 10 days. After treatment with adenine, the rats received alpha-calcidol at a dose of 300 ng/kg (3×/week, p.o.) until day 28. From day 0 until sacrifice (day 28), the animals were treated with a 2 ml/kg s.c. bolus of 0, 3, 10 and 30 mg/kg IP6. At each treatment, 3 additional animals were included to evaluate the […] for IP6. After 28 days the aorta, heart and right kidney were collected and the tissue calcium content determined.

[10] = Calcium chelation by IP6 in vitro; type: physicochemical; conditions: 2.5 mM calcium in 0.15 M NaCl, pH 7.40
Procedure: Objective: to evaluate the ionic calcium chelation potential of IP6. Experimental: a 2.5 mM of calcium in NaCl 0.15 M, pH 7.40, was pipetted with increasing concentrations of IP6. The amount of free ionic calcium was measured potentiometrically using a calcium-selective electrode and a potentiometer.

[11] = tested on: ECG and serum ionic calcium; assay: Cardiovascular function after 2 h intravascular infusion of IP6 in conscious dogs (telemetry); type: in vivo; conditions: for peak IP6 level: dogs
Procedure: Objective: to determine the effects of a non-bolus type administration of IP6 on the electrocardiogram (ECG) and serum ionic calcium concentrations.
Experimental: 4 male dogs were treated with 3, 10 and 30 mg/kg IP6 by infusion for 2 h in a Latin square design. A washout period of one week was performed between doses. ECGs were measured telemetrically at 1 h and 20 minutes prior to infusion and 5, 15, 30, 45 minutes, 1, 2, 6 and 24 h post-infusion. In a second stage, blood samples were taken for PK, for the same doses, at 20 minutes prior to infusion and 5, 15, 30 minutes and 1, 1.5, 2, 3 and 6 h post-infusion. In this case the washout period between doses was 2 days. […]

[12] = tested on: serum ionic calcium, ECG and clinical signs; assay: Cardiovascular function after bolus intravenous IP6 in conscious dogs (telemetry); type: in vivo
Procedure: Objective: to examine the effects of a bolus-type administration of IP6 in serum ionic calcium, ECG and clinical signs in dogs. Experimental: 4 male dogs, 2 per dose, were injected with 10, 15 and 30 mg/kg. Two washout days were introduced between the different doses. The ECGs were recorded telemetrically. Blood ionic calcium concentrations were determined on different days to the ECG measurements.

[13] = tested on: vit D-induced cardiovascular calcification; assay: Inhibition of vit D-induced (300,000 IU/kg x3) cardiovascular calcification by s.c. IP6; type: in vivo, SD rats
Procedure: Objective: to evaluate the efficacy of s.c. IP6 for inhibiting vit D-induced cardiovascular calcification in rats. Experimental: male SD rats were divided into 9 groups. Two of said groups (sham and control groups) received s.c. saline 2 ml/kg; 6 groups received s.c. […] One group was treated with a s.c. Alzet pump loaded with 200 mg/ml IP6. Calcification was induced by oral administration of 300,000 IU/kg vitamin D (2 ml/kg) for 3 days starting on treatment day 3. […] The calcium content in heart, aorta and kidneys was determined after treatment for 7 days.

[14] = tested on: vitamin D-induced cardiovascular calcification; assay: Inhibition of vit D-induced (75,000 IU/kg x5) cardiovascular calcification by intravenous IP6; type: in vivo, Sprague Dawley (SD) rats
Procedure: Objective: to evaluate the efficacy of intravenous IP6 in inhibiting vitamin D-induced cardiovascular calcification in rats. Experimental: male Sprague Dawley (SD) rats were divided into 7 groups and IP6 was administered intravenously daily for 14 days at a dose of 0, 0.05, 0.1, 0.5, 1, 5 and 10 mg/kg. Calcification was induced by oral administration of 75,000 IU/kg vitamin D on treatment days 3 to 7. Samples were collected. On day 14 the aortas and hears of the animals were collected to quantify calcification.

[15] = intravascular infusion 50 mg/kg for 4 hours, day 0-28, uraemic rats
[16] = normal Wistar rats, s.c. 10 mg/kg
[17] = i.v. between 1 and 10 mg/kg daily for 14 days
[18] = without IP6, drug effect simulated by modifying calcium and phosphate concentrations

reduction of plasma IP6 levels by the end of the experiment ([1]; uraemic rats, due to high metabolic rate): 90% | peak plasma concentration ([4]; normal rats, 10 mg/kg i.v. infusion over 4 h): 8.4 µM | peak plasma concentration ([4]; normal rats, 50 mg/kg i.v. infusion over 4 h): 68.4 µM | peak plasma concentration ([4]; uraemic rats, 10 mg/kg i.v. infusion over 4 h): 2.8 µM | peak plasma concentration ([4]; uraemic rats, 50 mg/kg i.v. infusion over 4 h): 24.6 µM | time approximately constant plasma concentration maintained ([4]; uraemic rats, 50 mg/kg infusion, from hour 1 to hour 4): 3 h | dialysability of IP6 ([5]; administration via dialysis line for 20 minutes): not lost via the dialysis membrane | effect on free calcium ([5]; apparatus in bypass mode): chelates (sequesters) free calcium | effect on ionic calcium ([5]; apparatus in dialysis mode): ionic calcium levels are restored | duration of measurable plasma levels [6, 16]: at least 30 minutes | peak plasma concentration [6, 16]: 7.4 µM | time of peak concentration post-administration [6, 16]: 15 min | peak plasma concentration ([6]; uraemic rats (adenine), s.c. 10 mg/kg): 1.8 µM | time to adsorption maximum ([7]; 7.6 μM IP6, 37° C., pH 7.4): 60 min | fraction of maximum binding achieved ([7]; after 5 minutes, 7.6 μM IP6): Around 80%
Compound: O=P(O)(O)O[C@H]1[C@H](OP(=O)(O)O)[C@@H](OP(=O)(O)O)[C@H](OP(=O)(O)O)[C@@H](OP(=O)(O)O)[C@H]1OP(=O)(O)O [IP6, inositol hexaphosphate]
reduction in average calcification in the aorta [1, 15]: 80% | reduction in average calcification in the heart [1, 15]: 85% | calcification inhibition (aorta, heart, remaining kidney) [2]: no evidence of calcification inhibition | induction period of HAP crystallisation ([3]; 11.4 μM IP6, pH 7.4, control 8 minutes): 28 min | combination effect on induction period ([3]; IP6 0-11.4 μM with simulated cinacalcet or sevelamer): clear synergistic effect | metabolites detected ([6]; plasma, rats): Lower inositol phosphates (IP5, IP4, IP3, IP2, IP1) and inositol | Emax for adsorption on HAP (saturation) [8]: 6.42 mg/g | maximum adsorption of IP6 on the HAP surface ([8]; 300 mg HAP, 7.6 μM IP6, 8 hours): 4.8 mg | IP6 concentration at saturation of adsorption on HAP ([8]; 37° C., pH 7.4): ≥ 7.6 µM | calcification inhibition (aorta, heart, right kidney) [9]: no evidence of calcification inhibition | IP6 concentration at saturation of calcium chelation [10]: 3788 µM | IP6 concentration with significant ionic calcium chelation [10]: about 379 μM | peak IP6 level ([11]; 3 mg/kg infusion 2 h): 27 µM | peak IP6 level ([11]; 10 mg/kg infusion 2 h): 150 µM | peak IP6 level ([11]; 30 mg/kg infusion 2 h): 482 µM | state of health, weight, cardiorespiratory function, ECG, body temperature, total and free potassium in blood ([11]; infusion for 2 h, 3, 10 and 30 mg/kg, any dose): relatively unaffected | overall effects on dogs ([11]; infusion of 3, 10 and 30 mg/kg for 2 h): no negative effects | ECG findings ([12]; i.v. bolus above 15 mg/kg, becoming significant above 30 mg/kg): mild tachycardia and prolonged QTc interval | decrease in ionic calcium ([12]; i.v. bolus, correlated with prolonged QTc): 30% | efficacy (inhibition of calcification) ([13]; s.c. 60 mg/kg): approximately 60% | efficacy (inhibition of calcification) ([13]; s.c. 100 mg/kg): approximately 60% | minimum dose that produced a significant effect on calcification ([13]; s.c., aorta): 10 mg/kg | effect on mineral content of the aorta and heart ([14]; i.v. 0.05 to 0.5 mg/kg daily for 14 days): did not affect | reduction of calcification in aorta [14, 17]: up to 60% | reduction of calcification in heart [14, 17]: ≤ 68%

Compound: C[C@@H](NCCCc1cccc(C(F)(F)F)c1)c1cccc2ccccc12 [cinacalcet, reference compound]
induction period of HAP crystallisation [3, 18]: 14 min

Compound: O=P([O-])([O-])OP(=O)([O-])[O-].[Na+].[Na+].[Na+].[Na+] [pyrophosphate, sodium pyrophosphate, reference compound]
efficacy on calcification ([13]; s.c., at higher doses than IP6): good efficacy

Compound: sevelamer [reference compound]
induction period of HAP crystallisation [3, 18]: 15 min

— patent publication US10010559B2, “Use of derivatives containing C-O-P bonds in patients with kidney failure” (LABORATORIOS SANIFIT, S.L., priority 2013, dated 2018)
